Assay results from patent US20180318415A1, “NOVEL ADJUVANT FORMULATIONS” (GLAXOSMITHKLINE BIOLOGICALS, SA, priority 2015, published 2018).

System: rabbits
Experiment: Rabbit pyrogen test (USP<151>)
Conditions: CRX-601 per kg animal body weight

SMILES: CCCCCCCCCCC[C@H](CC(=O)NC1C(OC(=O)C[C@@H](CCCCCCCCCCC)OCCCCCCCCCC)[C@H](OP(=O)(O)O)C(CO)O[C@H]1OC[C@H](NC(=O)C[C@@H](CCCCCCCCCCC)OCCCCCCCCCC)C(=O)O)OCCCCCCCCCC (stereo partly shown) [free CRX-601]
- Max non-pyrogenic dose: 0.001 to 0.002 µg/kg
